Source: patent US20220281902A1, “MIT[…] IMPROVE METABOLIC SYNDROME DURING AGING” (The Board of Trustees of the Leland Stanford Junior …, priority 2019, published 2022)
Marks after values point to notes of the source that are not given here.

Assays:
[1] = DEXA body composition analysis and fat depot analysis; type: in vivo; conditions: 14 month old mice
[2] = tested on: ATP production; experiment: ATP level in liver of treated mice; type: in vivo, mouse
From the text: Measurement of ATP level in liver. For measuring ATP, cellular ATP in livers was extracted using an ATP extraction kit of an ATP assay kit (Sigma-Aldrich, MAKI 90). The ATP level was quantitatively measured by the absorbance at 570 nm (A570).

[3] = tested on: reactive oxygen species (ROS); experiment: Serum ROS generation evaluation; type: in vivo, mouse; conditions: blood plasma, after 14 months of treatment
[4] = Serum biomarkers in treated mice; type: in vivo, C57BL/6 mice; conditions: 100 mg/Kg per day
From the text: (§1) The C57BL/6 mice were maintained on a standard purified mouse diet (PicoLab 5053 Rodent Diet 20; Lab Diets) until they reached 2 months of age when the treatments started. The CR animals were subjected to a lifelong restriction on PicoLab 5053 Rodent Diet 20; Lab Diets, starting at 12 weeks of age, with a daily food allotment of 60% of that eaten by the ad lib animals. Besides CR animals, the C57BL/6 groups in this study were fed the standard high fat diet (HFD; 60 or 40% fat). Body weights were measured weekly at the same time each week. Food and water intake were measured once every month for 3-6 consecutive days at the same time each month. Water consumption was measured for 2 weeks prior to the start of administration. Compound was generated and modified for better permeability in to mitochondria, evaluated by HPLC, was 96%-97%. The administration began at 8 weeks of age and continued for 16 months, until they became 18-month-old. The drug solution was prepared weekly in small batches by dissolving the compound into autoclaved water at the respective doses and filtering sterilely. Aliquots were collected from each batch and measured by HPLC to confirm stability of the compound. Water bottles and cages were changed twice weekly. Fed and fasted blood samples were collected monthly at the same time each month from tail and used for glucose, insulin, blood cell counts, lipid analysis using assay kits (Robio, China) and HbA1C assay kit (Crystal chem, USA) following the manufacturer protocol. IPGTTs and ITTs were conducted throughout morning and early afternoon after fasting for 16-18 hrs. and 4 hrs., respectively, once before start of treatment administration began and every 3 months thereafter. Rectal body temperature was measured monthly, as described previously. Whole blood samples, and histopathology were analyzed after 14 months of treatment. Tissue samples were collected after 10-14 months from mice, sacrificed and used for WB and qPCR microarray, and other analyses. All animal studies were approved by the Shanghai Jiao Tong University Animal Studies Committee and were in accordance with NIH guidelines. (Number of mice; SD=30, HFD=10, CR=20).

[5] = tested on: HeLa cells; experiment: In vivo cervical cancer mouse model; design: species or system mice
Procedure: To investigate the effects of an example compound on a cervical cancer mouse model, HeLa cells were introduced to the back of mice (five groups, 5-6 mice in each group). After the tumor volume reached about 200 mm^3, compound HG1a-1 solution (5, 20, 50 mg/kg) was dosed by intraperitoneal (IP) injection, every second day for ten days. Control mice were dosed with Saline and Taxol solution (PTX, 20 mg/kg). Tumor weight and volume were measured.

[6] = tested on: p16, p21 transcripts; experiment: qPCR of DNA damage and WAT senescence markers; type: in vivo, mouse; conditions: WAT, after 14 months treatment
Procedure: (§2) Gene expression & RT qPCR Analyses. Total RNA was isolated using a commercially available kit (OMEGA bio-tek, R6812-02) according to the manufacturer's instructions. cDNA was generated using the PrimeScript RT reagent kit (TAKARA, RR047A). Gene expression were determined by qPCR as described in the product manual. The analysis was evaluated by Bio-Rad Real-Time System (CFX Connect™).
(§3) RNAs from 10 mice (5 treated and 5 Ctrl.) VF fat or livers were isolated by using omega Bio-Tek reagents, and cDNA was transcribed by (TAKARA). qPCR was then performed by using iQ SYBR Green mastermix bioscience on a CFX96 Real-Time System/C1000 Thermal Cycler (Bio-Rad).

[7] = tested on: UCP1, UCP2, CIDEA, Cox8b transcripts; experiment: qPCR of thermoregulatory factors and beiging inducers; type: in vivo, mouse; conditions: brown fat, after 14 months of treatment
Procedure: as §2, §3

[8] = tested on: mature 3T3-L1 cells; experiment: 2-NBDG glucose uptake in matured adipocytes; type: cell-based; conditions: highest concentration 50 μg/mL, vs insulin (control) and Rosiglitazone
Procedure: Second, adipocytes are the main site of insulin action and, thereby, play an important role in glucose metabolism as well as in the regulation of body glucose homeostasis. Therefore, the glucose uptake tests were evaluated on matured adipocytes to stimulate 2-NBDG (glucose) in the absence and presence of insulin and Rosiglitazone (insulin-sensitizer) and the higher insulin sensitivity was verified after treatment by the inhibitor.

[9] = Body weight variations on chow diet; type: in vivo, C57BL/6 mice; conditions: for body weight lighter than controls: male mice
Procedure: Animal experimentation. […] Ltd) were group-housed in a barrier facility with 12-hr light/12-hr dark cycles. All mice received a regular chow diet ad libitum (PicoLab 5053 Rodent Diet 20; Lab Diets) except for HFD (40-60%) and CR models. The compound was then administered in drinking water ad libitum at either 90-100 or 100-120 mg/kg/day, based on the previously measured water consumption.
as §1

[10] = 5, 20 and 50 mg/kg IP, after 10 days

## Cc1ncsc1CCOC(=O)C[P+](c1ccccc1)(c1ccccc1)c1ccccc1.[Br-] [HG1a-1, (2-(2-(4-Methylthiazol-5-yl)Ethoxy)-2-Oxoethyl) Triphenylphosphonium Bromide]
[1]
  gonadal adipose mass: valid reduction
  sub-scapular brown adipose mass: minor effect
[1]; DEXA
  body fat mass: recognizable decrease
  lean mass: trivial changes
[2]; 6 months
  decrease of ATP level in liver compared to controls: 50%
[2]; long term treated mice
  decrease of ATP level in liver compared to controls: 25%
[3]
  drop of ROS production: ~4 fold
[4]; 12 months continuous treatment
  glycated hemoglobin (Hb1Ac) levels vs control and calorie restriction: lower
[4]; serum, treated mice
  Cholesterol: 6.3 ± 0.9 mM/L
  Glucose-fasted: 4.4 ± 0.2 mM
  Glucose-fed: 6.5 ± 0.3 mM
  Insulin: 2.34 ± 0.5 µg/L
  Total protein: 5.89 ± 0.32 g dl^□−1
  Triglycerides: 1.00 ± 1*^ mM/L
[4]; treated mice
  % HbA1c: 5.5 ± 0.5 %
[5]; 5, 20, 50 mg/kg IP every second day for ten days, with increasing dose
  tumor size: decreased
[5]; [10]
  tumor volume relative to saline control: decreased
  tumor weight relative to saline control: decreased
[6]
  p16 expression decline: 10 fold
  p21 expression: remained unchanged
[7]
  CIDEA expression amplified: one-fold
  Cox8b expression amplified: 7 fold
  UCP2 expression amplified: > one-fold
  UPC1 expression increase: 20 fold
[8]
  2-NBDG uptake: notably higher
[9]; female mice, by 9 months
  body weight decrease vs controls: 26%
[9]; female mice, end of 5 months
  body weight less than controls: 12%
[9]; after 14 months treatment
  body weight lighter than controls: 25%
[9]; end of 5 months
  body weight lighter than controls: 18%
